Reference: article PMC7430754, “Cloning and functional complementation of ten Schistosoma mansoni phosphodiesterases expressed in the mammalian host stages” (PLoS Neglected Tropical Diseases, 2020)

Experiments:
TbrPDEB2 = target: T1, TbrPDEB2 (Trypanosoma brucei, UniProt Q38F42); assay: alamar blue growth assay of T. brucei TbrPDEB1/B2 double knockout dependent on this PDE; type: cell-based; settings: growth read-out of whole trypanosomes, not enzyme assay; HMI-11 medium, 37 °C, 48 h plus 24 h resazurin
T1 construct: gene Tb09.160.3630; full length, C-terminal 6Myc tag, expressed from rRNA locus in T. b. brucei 2T1 lacking endogenous TbrPDEB1/B2
Text: alamar blue growth assay of T. brucei TbrPDEB1/B2 double knockout dependent on this PDE on TbrPDEB2

SmPDE4A = target: T2, SmPDE4A (Schistosoma mansoni, UniProt A0ACM8RGL1); assay: as above; type: cell-based, Trypanosoma brucei; settings: growth read-out of whole trypanosomes, not enzyme assay; HMI-11 medium, 37 °C, 48 h plus 24 h resazurin
T2 construct: gene PDE4A; full length 699 aa, codon-optimised, N-terminal first 70 aa of TbrPDEB1 as targeting tag, C-terminal GFP; expressed in T. b. brucei 2T1 lacking TbrPDEB1/B2
Text: alamar blue growth assay of T. brucei TbrPDEB1/B2 double knockout dependent on this PDE on SmPDE4A

[1] = tested on: T3, T. b. brucei 2T1 (parental wild type); assay: microbe, parasite or virus in culture; set-up: species or system T. b. brucei 2T1 bloodstream form; Alamar blue (resazurin) viability of parental bloodstream-form trypanosomes, fluorescence; settings: Trypanosoma brucei, 72 h, read-out: 2T1-WT EC50 (μM)
T3 construct: 2T1, bloodstream form
Description: Drug sensitivities were assessed using a modified version of the alamar blue assay described previously. Briefly, test drugs were serially diluted in 100 μl of complete HMI‐11 media across two rows of a white 96-well plate (Greiner, Stonehouse, UK). Bloodstream‐form trypanosome cultures were diluted in HMI‐11, and 100 μl was added to all wells to give a final cell density of 1 × 10^5 trypanosomes/ml. Plates were incubated for 48 h at 37°C/5% CO2, prior to the addition of 20 μl of 5 mM resazurin sodium salt (Sigma‐Aldrich, Gillingham, UK) in PBS, pH7.4. Plates were incubated for a further 24 h in the same conditions, before fluorescence was measured using a FLUOstar Optima fluorimeter (BMG Labtech, Aylesbury, UK) with excitation and emission filters of 544 nm and 590 nm, respectively. […] All EC50 values were determined at least three times independently.

TbrPDEB1 = target: T4, TbrPDEB1 (Trypanosoma brucei, UniProt Q8WQX9); assay: alamar blue growth assay of T. brucei TbrPDEB1/B2 double knockout dependent on this PDE; type: cell-based; settings: growth read-out of whole trypanosomes, not enzyme assay; HMI-11 medium, 37 °C, 48 h plus 24 h resazurin
T4 construct: gene PDEB1; full length, C-terminal 6Myc tag, expressed from rRNA locus in T. b. brucei 2T1 lacking endogenous TbrPDEB1/B2
Text: alamar blue growth assay of T. brucei TbrPDEB1/B2 double knockout dependent on this PDE on TbrPDEB1

T1 sequence (Q38F42 entry or part of it): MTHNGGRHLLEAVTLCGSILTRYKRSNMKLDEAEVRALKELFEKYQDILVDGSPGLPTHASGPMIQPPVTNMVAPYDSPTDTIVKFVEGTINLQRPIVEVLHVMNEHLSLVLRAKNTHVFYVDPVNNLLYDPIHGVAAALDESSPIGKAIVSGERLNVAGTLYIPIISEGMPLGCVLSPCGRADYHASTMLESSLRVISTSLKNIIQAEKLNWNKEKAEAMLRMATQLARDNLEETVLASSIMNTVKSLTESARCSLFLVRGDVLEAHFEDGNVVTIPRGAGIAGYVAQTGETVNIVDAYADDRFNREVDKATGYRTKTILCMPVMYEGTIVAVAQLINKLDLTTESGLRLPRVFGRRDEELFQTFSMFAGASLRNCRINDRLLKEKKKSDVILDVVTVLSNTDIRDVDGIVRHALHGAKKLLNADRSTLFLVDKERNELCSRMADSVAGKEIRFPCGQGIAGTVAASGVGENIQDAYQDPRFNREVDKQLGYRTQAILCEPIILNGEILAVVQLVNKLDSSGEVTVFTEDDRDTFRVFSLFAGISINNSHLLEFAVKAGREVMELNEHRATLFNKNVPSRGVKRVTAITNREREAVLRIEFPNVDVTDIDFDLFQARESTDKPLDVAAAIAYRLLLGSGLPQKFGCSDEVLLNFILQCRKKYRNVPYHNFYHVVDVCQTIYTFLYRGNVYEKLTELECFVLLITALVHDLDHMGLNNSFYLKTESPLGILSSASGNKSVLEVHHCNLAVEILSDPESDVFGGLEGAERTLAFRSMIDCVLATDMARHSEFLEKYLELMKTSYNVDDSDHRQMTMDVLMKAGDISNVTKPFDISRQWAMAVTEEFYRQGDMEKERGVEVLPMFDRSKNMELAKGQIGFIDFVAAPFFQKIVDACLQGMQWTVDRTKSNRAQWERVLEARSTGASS
T4 sequence (Q8WQX9 entry or part of it): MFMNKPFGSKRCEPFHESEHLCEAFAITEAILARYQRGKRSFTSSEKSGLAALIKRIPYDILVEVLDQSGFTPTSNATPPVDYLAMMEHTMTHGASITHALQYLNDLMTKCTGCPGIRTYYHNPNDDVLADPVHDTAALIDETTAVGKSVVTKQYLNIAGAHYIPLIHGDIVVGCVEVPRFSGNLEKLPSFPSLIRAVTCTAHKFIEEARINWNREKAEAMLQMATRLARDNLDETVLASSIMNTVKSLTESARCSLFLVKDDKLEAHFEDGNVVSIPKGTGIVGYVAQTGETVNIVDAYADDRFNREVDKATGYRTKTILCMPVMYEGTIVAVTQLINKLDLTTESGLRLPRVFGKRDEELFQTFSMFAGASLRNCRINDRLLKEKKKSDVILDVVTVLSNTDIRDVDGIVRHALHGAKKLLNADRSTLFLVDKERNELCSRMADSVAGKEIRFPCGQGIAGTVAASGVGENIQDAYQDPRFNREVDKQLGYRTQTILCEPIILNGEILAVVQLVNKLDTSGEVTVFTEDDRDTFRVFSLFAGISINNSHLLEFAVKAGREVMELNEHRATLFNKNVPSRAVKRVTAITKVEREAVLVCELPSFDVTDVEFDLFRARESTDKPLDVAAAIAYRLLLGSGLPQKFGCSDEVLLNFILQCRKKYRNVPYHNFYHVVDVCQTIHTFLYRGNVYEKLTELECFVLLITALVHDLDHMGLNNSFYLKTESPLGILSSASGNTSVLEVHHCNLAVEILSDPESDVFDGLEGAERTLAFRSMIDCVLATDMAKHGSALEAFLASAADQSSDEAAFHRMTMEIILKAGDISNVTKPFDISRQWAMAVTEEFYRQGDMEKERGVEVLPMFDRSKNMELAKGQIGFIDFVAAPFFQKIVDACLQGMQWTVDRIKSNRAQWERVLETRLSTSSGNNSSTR

Row | Structure (SMILES) | dKO+TbrPDEB2 EC50 (TbrPDEB2) [nM] | dKO+SmPDE4A / EC50 (SmPDE4A) [nM] | EC50 [1] [µM] | dKO+TbrPDEB1 EC50 (TbrPDEB1) [nM]
1 | COc1ccc(C2=NN(C3CCCCCC3)C(=O)[C@@H]3CC=CC[C@H]23)cc1OCCCCOc1ccc(-c2nn[nH]n2)cc1 [NPD-001] | 84 ± 18 | 24 ± 3 | 0.1 ± 0.015 | –
2 | COc1ccc(C2=NN(C3CCN(C(=O)CN4C(=O)CC(C)(C)CC4=O)CC3)C(=O)[C@@H]3CC=CC[C@H]23)cc1OC [NPD-226] | 82 ± 9 | 40 ± 4 | 0.16 ± 0.01 | 290 ± 110
3 | N=C(N)c1ccc(OCCCCCOc2ccc(C(=N)N)cc2)cc1 [Pentamidine] | – | – | 0.0012 ± 0.0002 | –
4 | COc1cc2c(cc1OC)-c1cc(=Nc3c(C)cc(C)cc3C)n(C)c(=O)n1CC2 [Trequisin] | – | – | 33.2 ± 0.9 | –
